Measured values reported in patent US6972286B2, “Oxazolidinones having a benzannulated 6- or 7-membered heterocycle” (Pharmacia and Upjohn Company, priority 2000, dated 2005).
≈ marks a conversion by molar mass, not a printed value.

System: Streptococcus pneumoniae
Assay: Minimum inhibitory concentration (MIC) by agar dilution
Assay type: cell-based
Settings: in vitro, agar dilution (NCCLS 1993), Streptococcus pneumoniae strain SPNE 9912; read-out: Antibacterial Activity Minimum Inhibitory Concentration SPNE 9912
Description: The oxazolidinone antibacterial agents of this invention have useful activity against a variety of organisms. The in vitro activity of compounds of this invention can be assessed by standard testing procedures such as the determination of minimum inhibitory concentration (MIC) by agar dilution as described in “Approved Standard. Methods for Dilution Antimicrobial Susceptibility Tests for Bacteria That Grow Aerobically”, 3rd. ed., published 1993 by the National Committee for Clinical Laboratory Standards, Villanova, Pa. USA.

Structure (SMILES): COC(=O)N1CCc2cc(N3C[C@H](CNC(C)=O)OC3=O)ccc2C1 [Example 1, (−)-Methyl 6-[(5S)-5-[(acetylamino)methyl]-2-oxo-3-oxazolidinyl]-3,4-dihydro-2(1H)-isoquinolinecarboxylate]
- MIC: 1 µg/mL (≈ 2.88 µM)

Structure (SMILES): CC(=O)NC[C@H]1CN(c2ccc3c(c2)CCN(C=O)C3)C(=O)O1 [Example 2, (−)-N-[[(5S)-3-[2-Formyl-1,2,3,4-tetrahydro-6-isoquinolinyl]-2-oxo-5-oxazolidinyl]methyl]acetamide]
- MIC: 1 µg/mL (≈ 3.15 µM)

Structure (SMILES): CC(=O)NC[C@H]1CN(c2ccc3c(c2)CCN(C(=O)COC(C)=O)C3)C(=O)O1 [Example 3, (−)-N-[[(5S)-3-[2-[(Acetyloxy)acetyl]-1,2,3,4-tetrahydro-6-isoquinolinyl]-2-oxo-5-oxazolidinyl]methyl]acetamide]
- MIC: 1 µg/mL (≈ 2.57 µM)

Structure (SMILES): CC(=O)NC[C@H]1CN(c2ccc3c(c2)CCN(C(=O)CO)C3)C(=O)O1 [Example 4, (−)-N-[[(5S)-3-[2-[(Hydroxy)acetyl]-1,2,3,4-tetrahydro-6-isoquinolinyl]-2-oxo-5-oxazolidinyl]methyl]acetamide]
- MIC: 1 µg/mL (≈ 2.88 µM)

Structure (SMILES): COC(=O)N1CCc2cc(N3C[C@H](CNC(C)=S)OC3=O)ccc2C1 [Example 5, (+)-Methyl 6-[(5S)-5-[(ethanethioylamino)methyl]-2-oxo-3-oxazolidinyl]-3,4-dihydro-2(1H)-isoquinolinecarboxylate]
- MIC: < 0.5 µg/mL

Structure (SMILES): CC(=S)NC[C@H]1CN(c2ccc3c(c2)CCN(C=O)C3)C(=O)O1 [Example 6, (+)-N-[[(5S)-3-[2-Formyl-1,2,3,4-tetrahydro-6-isoquinolinyl]-2-oxo-5-oxazolidinyl]methyl]ethanethioamide]
- MIC: < 0.5 µg/mL

Structure (SMILES): CC(=S)NC[C@H]1CN(c2ccc3c(c2)CCN(C(=O)CO)C3)C(=O)O1 [Example 7, (+)-N-[[(5S)-3-[2-[(Hydroxy)acetyl]-1,2,3,4-tetrahydro-6-isoquinolinyl]-2-oxo-5-oxazolidinyl]methyl]ethanethioamide]
- MIC: < 0.5 µg/mL

Structure (SMILES): CC(=O)NC[C@H]1CN(c2ccc3c(c2)CCOC3)C(=O)O1 [Example 8, (−)-N-[[(5S)-3-(3,4-Dihydro-1H-2-benzopyran-6-yl)-2-oxo-5-oxazolidinyl]methyl]acetamide]
- MIC: 4 µg/mL (≈ 13.8 µM)

Structure (SMILES): CC(=S)NC[C@H]1CN(c2ccc3c(c2)CCOC3)C(=O)O1 [Example 9, (+)-N-[[(5S)-3-(3,4-Dihydro-1H-2-benzopyran-6-yl)-2-oxo-5-oxazolidinyl]methyl]ethanethioamide]
- MIC: 1 µg/mL (≈ 3.26 µM)

Structure (SMILES): CC(=O)NC[C@H]1CN(c2ccc3c(c2)CSCC3)C(=O)O1 [Example 14, (−)-N-[[(5S)-3-(3,4-Dihydro-1H-2-benzothiopyran-7-yl)-2-oxo-5-oxazolidinyl]methyl]acetamide]
- MIC: 0.5 µg/mL (≈ 1.63 µM)

Structure (SMILES): CC(=S)NC[C@H]1CN(c2ccc3c(c2)CSCC3)C(=O)O1 [Example 15, (+)-N-[[(5S)-3-(3,4-Dihydro-1H-2-benzothiopyran-7-yl)-2-oxo-5-oxazolidinyl]methyl]ethanethioamide]
- MIC: 0.125 µg/mL (≈ 0.388 µM)

Structure (SMILES): CC(=S)NC[C@H]1CN(c2ccc3c(c2)CS(=O)(=O)CC3)C(=O)O1 [Example 16, (+)-N-[[(5S)-3-(3,4-Dihydro-2,2-dioxido-1H-2-benzothiopyran-7-yl)-2-oxo-5-oxazolidinyl]methyl]ethanethioamide]
- MIC: 1 µg/mL (≈ 2.82 µM)

Structure (SMILES): CC(=O)NC[C@H]1CN(c2ccc3c(c2)C[S+]([O-])CC3)C(=O)O1 (stereo partly drawn) [Example 17, N-[[(5S)-3-(3,4-Dihydro-2-oxido-1H-2-benzothiopyran-7-yl)-2-oxo-5-oxazolidinyl]methyl]acetamide]
- MIC: 2 µg/mL (≈ 6.2 µM)

Structure (SMILES): CC(=S)NC[C@H]1CN(c2ccc3c(c2)CN(C=O)CC3)C(=O)O1 [Example 18, (+)-N-[[(5S)-3-[2-Formyl-1,2,3,4-tetrahydro-7-isoquinolinyl]-2-oxo-5-oxazolidinyl]methyl]ethanethioamide]
- MIC: 1 µg/mL (≈ 3 µM)

Structure (SMILES): CC(=S)NC[C@H]1CN(c2ccc3c(c2)CN(C(=O)CO)CC3)C(=O)O1 [Example 19, (+)-N-[[(5S)-3-[2-[(Hydroxy)acetyl]-1,2,3,4-tetrahydro-7-isoquinolinyl]-2-oxo-5-oxazolidinyl]methyl]ethanethioamide]
- MIC: 2 µg/mL (≈ 5.5 µM)

Structure (SMILES): CC(=O)NC[C@H]1CN(c2ccc3c(c2)CCCCN3C=O)C(=O)O1 [Example 20, N-{[(5S)-3-(1-Formyl-2,3,4,5-tetrahydro-1H-1-benzazepin-7-yl)-2-oxo-1,3-oxazolidin-5-yl]methyl}acetamide]
- MIC: < 0.5 µg/mL

Structure (SMILES): CC(=S)NC[C@H]1CN(c2ccc3c(c2)CCCCN3C=O)C(=O)O1 [Example 21, N-{[(5S)-3-(1-Formyl-2,3,4,5-tetrahydro-1H-1-benzazepin-7-yl)-2-oxo-1,3-oxazolidin-5-yl]methyl}ethanethioamide]
- MIC: < 0.5 µg/mL

Structure (SMILES): CC(=O)NC[C@H]1CN(c2ccc3c(c2)CCN(C(=O)OCc2ccccc2)CC3)C(=O)O1 [Example 22]
- MIC: < 0.5 µg/mL

Structure (SMILES): CC(=O)NC[C@H]1CN(c2ccc3c(c2)CCN(C=O)CC3)C(=O)O1 [Example 23, N-{[(5S)-3-(3-Formyl-1,2,4,5-tetrahydro-1H-3-benzazepin-7-yl)-2-oxo-1,3-oxazolidin-5-yl]methyl}acetamide]
- MIC: < 0.5 µg/mL

Structure (SMILES): CC(=O)NC[C@H]1CN(c2ccc3c(c2)CCN(C(=O)CO)CC3)C(=O)O1 [Example 24, N-{[(55)-3-(3-Glycoloyl-1,2,4,5-tetrahydro-1H-3-benzazepin-7-yl)-2-oxo-1,3-oxazolidin-5-yl]methyl}acetamide]
- MIC: < 0.5 µg/mL

Structure (SMILES): CC(=O)NC[C@H]1CN(c2ccc3c(c2)CCN(C(C)=O)CC3)C(=O)O1 [Example 25, N-{[(5S)-3-(3-Acetyl-1,2,4,5-tetrahydro-1H-3-benzazepin-7-yl)-2-oxo-1,3-oxazolidin-5-yl]methyl}acetamide]
- MIC: 1 µg/mL (≈ 2.9 µM)

Structure (SMILES): COC(=O)N1CCc2ccc(N3C[C@H](CNC(C)=O)OC3=O)cc2CC1 [Example 26, Methyl 7-{(5S)-5-[(acetylamino)methyl]-2-oxo-1,3-oxazolidin-3-yl}-1,2,4,5-tetrahydro-3H-3-benzazepine-3-carboxylate]
- MIC: 1 µg/mL (≈ 2.77 µM)

Structure (SMILES): CC(=O)NC[C@H]1CN(c2ccc3c(c2)CCN(C(=O)c2ccccc2)CC3)C(=O)O1 [Example 27, N-{[(5S)-3-(3-Benzoyl-1,2,4,5-tetrahydro-1H-3-benzazepin-7-yl)-2-oxo-1,3-oxazolidin-5-yl]methyl}acetamide]
- MIC: 1 µg/mL (≈ 2.45 µM)

Structure (SMILES): CC(=O)NC[C@H]1CN(c2ccc3c(c2)CCN(S(C)(=O)=O)CC3)C(=O)O1 [Example 28, N-({(5)-3-[3-(Methylsulfonyl)-1,2,4,5-tetrahydro-1H-3-benzazepin-7-yl]-2-oxo-1,3-oxazolidin-5-yl}methyl)acetamide]
- MIC: 4 µg/mL (≈ 10.5 µM)

Structure (SMILES): CC(=O)NC[C@H]1CN(c2ccc3c(c2)CCN(C(=O)Oc2ccccc2)CC3)C(=O)O1 [Example 29, Phenyl 7-{(5S)-5-[(acetylamino)methyl]-2-oxo-1,3-oxazolidin-3-yl}-1,2,4,5-tetrahydro-3H-3-benzazepine-3-carboxylate]
- MIC: 2 µg/mL (≈ 4.72 µM)

Structure (SMILES): CC(=O)NC[C@H]1CN(c2ccc3c(c2)CCN(C(=O)Cc2ccccc2)CC3)C(=O)O1 [Example 30, N-[((5S)-3-{3-(Phenyl)acetyl-1,2,4,5-tetrahydro-1H-3-benzazepin-7-yl}-2-oxo-1,3-oxazolidin-5-yl)methyl]acetamide]
- MIC: 1 µg/mL (≈ 2.37 µM)

Structure (SMILES): CC(=O)NC[C@H]1CN(c2ccc3c(c2)CCN(C(=O)Cc2ccc(I)cc2)CC3)C(=O)O1 [Example 31, N-[((5S)-3-{3-[(4-Iodophenyl)acetyl]-1,2,4,5-tetrahydro-1H-3-benzazepin-7-yl}-2-oxo-1,3-oxazolidin-5-yl)methyl]acetamide]
- MIC: 1 µg/mL (≈ 1.83 µM)

Structure (SMILES): CC(=O)NC[C@H]1CN(c2ccc3c(c2)CCN(C(=O)Cc2cccc(C(F)(F)F)c2)CC3)C(=O)O1 [Example 32]
- MIC: 2 µg/mL (≈ 4.09 µM)

Structure (SMILES): CC(=O)NC[C@H]1CN(c2ccc3c(c2)CCN(C(=O)Cc2ccc(C(F)(F)F)cc2)CC3)C(=O)O1 [Example 33]
- MIC: 2 µg/mL (≈ 4.09 µM)

Structure (SMILES): CC(=O)CCC(=O)N1CCc2ccc(N3C[C@H](CNC(C)=O)OC3=O)cc2CC1 [Example 34]
- MIC: 2 µg/mL (≈ 4.98 µM)

Structure (SMILES): CC(=O)CCCC(=O)N1CCc2ccc(N3C[C@H](CNC(C)=O)OC3=O)cc2CC1 [Example 35, N-({(5S)-2-Oxo-3-[3-(5-oxohexanoyl)-1,2,4,5-tetrahydro-1H-3-benzazepin-7-yl]-1,3-oxazolidin-5-yl}methyl)acetamide]
- MIC: 1 µg/mL (≈ 2.41 µM)

Structure (SMILES): CC(=O)NC[C@H]1CN(c2ccc3c(c2)CCCN(C=O)C3)C(=O)O1 [Example 36, N-{[(5S)-3-(2-Formyl-1,3,4,5-tetrahydro-1H-2-benzazepin-7-yl)-2-oxo-1,3-oxazolidin-5-yl]methyl}acetamide]
- MIC: < 0.5 µg/mL

Structure (SMILES): CC(=O)NC[C@H]1CN(c2ccc3c(c2)CCCN(C(=O)CO)C3)C(=O)O1 [Example 37, N-{[(5S)-3-(2-Glycoloyl-1,3,4,5-tetrahydro-1H-3-benzazepin-7-yl)-2-oxo-1,3-oxazolidin-5-yl]methyl}acetamide]
- MIC: 1 µg/mL (≈ 2.77 µM)

Structure (SMILES): CC(=O)NC[C@H]1CN(c2ccc3c(c2)CCCN(C(C)=O)C3)C(=O)O1 [Example 38, N-{[(5S)-3-(2-Acetyl-1,3,4,5-tetrahydro-1H-2-benzazepin-7-yl)-2-oxo-1,3-oxazolidin-5-yl]methyl}acetamide]
- MIC: 2 µg/mL (≈ 5.79 µM)

Structure (SMILES): CC(=O)NC[C@H]1CN(c2ccc3c(c2)CCCN(C(=O)Nc2ccccc2)C3)C(=O)O1 [Example 40, 7-{(5S)-5-[(Acetylamino)methyl]-2-oxo-1,3-oxazolidin-3-yl}-N-phenyl-1,3,4,5-tetrahydro-2H-2-benzazepine-2-carboxamide]
- MIC: 1 µg/mL (≈ 2.37 µM)

Structure (SMILES): CC(=S)NC[C@H]1CN(c2ccc3c(c2)CCN(C(=O)CO)CC3)C(=O)O1 [Example 41, N-{[(5S)-3-(3-Glycoloyl-1,2,4,5-tetrahydro-1H-3-benzazepin-7-yl)-2-oxo-1,3-oxazolidin-5-yl]methyl}ethanethioamide]
- MIC: 0.125 µg/mL (≈ 0.331 µM)

Structure (SMILES): CC(=O)NC[C@H]1CN(c2ccc3c(c2)CCN(c2nnc(N)s2)CC3)C(=O)O1 [Example 42, N-({(5S)-3-[3-(5-Amino-1,3,4-thiadiazol-2-yl)-1,2,4,5-tetrahydro-1H-3-benzazepin-7-yl]-2-oxo-1,3-oxazolidin-5-yl}methyl)acetamide]
- MIC: 0.5 µg/mL (≈ 1.24 µM)
